Test results published in patent US10294202B2, “Pyrrolidinones as herbicides” (FMC Corporation, priority 2013, dated 2019).

Experiments:
johnsongrass = experiment: Test E preemergence herbicide test; format: in vivo, Sorghum halepense; set-up: key: 0 = no effect, 100 = complete control
From the text: Seeds of plant species selected from corn (Zea mays), soybean (Glycine max), velvetleaf (Abutilon theophrasti), lambsquarters (Chenopodium album), wild poinsettia (Euphorbia heterophylla), pigweed, palmer (palmer pigweed, Amaranthus palmeri), waterhemp (common waterhemp, Amaranthus rudis), surinam grass (Brachiaria decumbens), crabgrass, large (large crabgrass, Digitaria sanguinalis), crabgrass, Brazil (Brazilian crabgrass, Digitaria horizontalis), panicum, fall (fall panicum, Panicum dichotomiflorum), foxtail, giant (giant foxtail, Setaria faberii), foxtail, green (green foxtail, Setaria viridis), goosegrass (Eleusine indica), johnsongrass (Sorghum halepense), ragweed (common ragweed, Ambrosia elatior), barnyardgrass (Echinochloa crus-galli), sandbur (southern sandbur, Cenchrus echinatus), arrowleaf […] rhombifolia), ryegrass, Italian (Italian ryegrass, Lolium multiflorum), dayflower, VA (Virginia dayflower, Commelina virginica), field bindweed (Convolvulus arvensis), morningglory (Ipomoea coccinea), nightshade (eastern black nightshade, Solanum ptycanthum), kochia (Kochia scoparia), nutsedge, yellow (yellow nutsedge, Cyperus esculentus), cocklebur (common cocklebur, Xanthium strumarium), smartweed (ladysthumb smartweed, Polygonum Persicaria) and beggarticks (hairy beggarticks, Bidens pilosa), were planted into a silt loam soil and treated preemergence with test chemicals formulated in a non-phytotoxic solvent mixture which included a surfactant. Treated plants and controls were maintained in a greenhouse for 21 days, after which time all species were compared to controls and visually evaluated. Plant response ratings, summarized in Table E, are based on a scale of 0 to 100 where 0 is no effect and 100 is complete control. A dash (-) response means no test result.

cocklebur = experiment: Test C pre-/postemergence herbicide test; format: in vivo, Xanthium strumarium
Procedure, shortened: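 Greenhouse plants scored visually against untreated controls 13–15 days after treatment, 0 = no effect, 100 = complete control. Test chemicals in a non-phytotoxic solvent with surfactant were applied either to soil (loam/sand) at planting or to foliage of 1- to 4-leaf plants, 2–18 cm tall.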

ryegrass, Italian = experiment: Test D pre-/postemergence herbicide test; format: in vivo, Lolium multiflorum; settings: for Plant response rating: Postemergence, Ryegrass, Italian, scale 0 to 100; for Plant response rating, Ryegrass, Italian: Preemergence, scale 0 to 100 (0 no effect, 100 complete control)
From the text: (§1) Seeds of plant species selected from bluegrass (annual bluegrass, Poa annua), blackgrass (Alopecurus myosuroides), canarygrass (littleseed canarygrass, Phalaris minor), chickweed (common chickweed, Stellaria media), galium (catchweed bedstraw, Galium aparine), bromegrass, downy (downy bromegrass, Bromus tectorum), field poppy (Papaver rhoeas), field violet (Viola arvensis), foxtail, green (green foxtail, Setaria viridis), deadnettle (henbit deadnettle, Lamium amplexicaule), ryegrass, Italian (Italian ryegrass, Lolium multiflorum), kochia (Kochia scoparia), lambsquarters (Chenopodium album), oilseed rape (Brassica napus), pigweed (Amaranthus retroflexus), chamomile (scentless chamomile, Matricaria inodora), Russian thistle (Salsola kali), speedwell (bird's-eye speedwell, Veronica persica), barley, spring (spring barley, Hordeum vulgare), wheat, spring (spring wheat, Triticum aestivum), buckwheat, wild (wild buckwheat, Polygonum convolvulus), mustard, wild (wild mustard, Sinapis arvensis), oat, wild (wild oat, Avena fatua), radish, wild (wild radish, Raphanus raphanistrum), […]), barley, winter (winter barley, Hordeum vulgare), and wheat, winter (winter wheat, Triticum aestivum) were planted into a silt loam soil and treated preemergence with test chemicals formulated in a non-phytotoxic solvent mixture which included a surfactant. At the same time, these species were planted in pots containing Redi-Earth® planting medium (Scotts Company, 14111 Scottslawn Road, Marysville, Ohio 43041) comprising spaghnum peat moss, vermiculite, wetting agent and starter nutrients and treated with postemergence applications of the test chemicals formulated in the same manner. Plants ranged in height from 2 to 18 cm (1- to 4-leaf stage). Treated plants and controls were maintained in a controlled growth environment for 7 to 21 days after which time all species were compared to controls and visually evaluated. Plant response ratings, summarized in Table D, are based on a scale of 0 to 100 where 0 is no effect and 100 is complete control. A dash (-) response means no test result.

mustard, wild = experiment: Test D pre-/postemergence herbicide test; format: in vivo, Sinapis arvensis; settings: for Plant response rating: Mustard, Wild, scale 0 to 100; for Plant response rating, Mustard, Wild: scale 0 to 100 (0 no effect, 100 complete control)
From the text: as §1

[1] = Preemergence, 62 g ai/ha, scale 0 to 100
[2] = Preemergence, 31 g ai/ha, scale 0 to 100 (0 no effect, 100 complete control)
[3] = Preemergence, 250 g ai/ha, scale 0 to 100 (0 no effect, 100 complete control)

O=C1NCC(c2ccc(Cl)c(Cl)c2)C1C(=O)Nc1ccccc1F (racemic) [Compound 14]
Plant response rating, Johnsongrass (johnsongrass; 16 g ai/ha): 0 | Plant response rating, Johnsongrass (johnsongrass; 31 g ai/ha): 0 | Plant response rating, Johnsongrass (johnsongrass; 62 g ai/ha): 0 | Plant response rating, Johnsongrass (johnsongrass; 125 g ai/ha): 0 | Plant response rating, Johnsongrass (johnsongrass; 250 g ai/ha): 0 | Plant response rating, Cocklebur (cocklebur; [1]): 0 | Cocklebur plant response rating (cocklebur; [2]): 0 | Plant response rating, Cocklebur (cocklebur; [3]): 0

O=C1NCC(c2ccc(C(F)(F)F)cc2)C1C(=O)Nc1cccc(F)c1F (racemic) [Compound 202]
Plant response rating (ryegrass, Italian; 31 g ai/ha): 0 | Plant response rating (ryegrass, Italian; 62 g ai/ha): 0 | Plant response rating (ryegrass, Italian; 125 g ai/ha): 10 | Plant response rating (ryegrass, Italian; 250 g ai/ha): 15 | Plant response rating, Ryegrass, Italian (ryegrass, Italian; 62 g ai/ha): 5 | Plant response rating, Ryegrass, Italian (ryegrass, Italian; 125 g ai/ha): 5 | Plant response rating, Ryegrass, Italian (ryegrass, Italian; 31 g ai/ha): 0 | Plant response rating, Ryegrass, Italian (ryegrass, Italian; 250 g ai/ha): 10 | Plant response rating, Johnsongrass (johnsongrass; 31 g ai/ha): 0 | Plant response rating, Johnsongrass (johnsongrass; 62 g ai/ha): 0 | Plant response rating, Johnsongrass (johnsongrass; 125 g ai/ha): 20 | Plant response rating, Johnsongrass (johnsongrass; 250 g ai/ha): 25 | Plant response rating (mustard, wild; Postemergence, 31 g ai/ha): 85 | Plant response rating (mustard, wild; Postemergence, 62 g ai/ha): 80 | Plant response rating (mustard, wild; Postemergence, 125 g ai/ha): 80 | Plant response rating (mustard, wild; Postemergence, 250 g ai/ha): 85 | Plant response rating, Mustard, Wild (mustard, wild; Preemergence, 62 g ai/ha): 0 | Plant response rating, Mustard, Wild (mustard, wild; Preemergence, 31 g ai/ha): 0 | Plant response rating (mustard, wild; Preemergence, 125 g ai/ha): 20 | Plant response rating (mustard, wild; Preemergence, 250 g ai/ha): 75

O=C1NCC(c2ccc(OC(F)F)cc2)C1C(=O)Nc1cccc(F)c1F (racemic) [Compound 350]
Plant response rating, Johnsongrass (johnsongrass; 31 g ai/ha): 0 | Plant response rating, Johnsongrass (johnsongrass; 62 g ai/ha): 0 | Plant response rating, Johnsongrass (johnsongrass; 125 g ai/ha): 0 | Plant response rating, Johnsongrass (johnsongrass; 250 g ai/ha): 0

O=C1NCC(c2ccc(F)c(F)c2)C1C(=O)Nc1cccc(F)c1F (stereo not shown) [Compound 17, N-(2,3-difluorophenyl)-4-(3,4-difluorophenyl)-2-oxo-3-pyrrolidinecarboxamide]
Plant response rating (ryegrass, Italian; 16 g ai/ha): 0 | Plant response rating (ryegrass, Italian; 31 g ai/ha): 0 | Plant response rating (ryegrass, Italian; 62 g ai/ha): 0 | Plant response rating (ryegrass, Italian; 125 g ai/ha): 0 | Plant response rating (ryegrass, Italian; 250 g ai/ha): 0 | Plant response rating, Johnsongrass (johnsongrass; 16 g ai/ha): 0 | Plant response rating, Johnsongrass (johnsongrass; 31 g ai/ha): 0 | Plant response rating, Johnsongrass (johnsongrass; 62 g ai/ha): 0 | Plant response rating, Johnsongrass (johnsongrass; 125 g ai/ha): 0 | Plant response rating, Johnsongrass (johnsongrass; 250 g ai/ha): 0 | Plant response rating, Cocklebur (cocklebur; Postemergence, 31 g ai/ha, scale 0 (no effect) to 100 (complete control)): 0 | Plant response rating, Cocklebur (cocklebur; Postemergence, 62 g ai/ha, scale 0 to 100 (0 no effect, 100 complete control)): 0 | Plant response rating, Cocklebur (cocklebur; Postemergence, 125 g ai/ha, scale 0 to 100 (0 no effect, 100 complete control)): 0 | Plant response rating, Cocklebur (cocklebur; Postemergence, 250 g ai/ha, scale 0 to 100 (0 no effect, 100 complete control)): 0 | Plant response rating, Cocklebur (cocklebur; [1]): 5 | Plant response rating, Cocklebur (cocklebur; Preemergence, 125 g ai/ha, scale 0 to 100 (0 no effect, 100 complete control)): 5 | Cocklebur plant response rating (cocklebur; [2]): 0 | Plant response rating, Cocklebur (cocklebur; [3]): 5 | Plant response rating (mustard, wild; Postemergence, 16 g ai/ha): 0 | Plant response rating (mustard, wild; Postemergence, 31 g ai/ha): 0 | Plant response rating (mustard, wild; Postemergence, 62 g ai/ha): 10 | Plant response rating (mustard, wild; Postemergence, 125 g ai/ha): 30 | Plant response rating (mustard, wild; Postemergence, 250 g ai/ha): 30

O=C1NCC(c2ccc(C(F)(F)F)cc2)C1C(=O)Nc1cccc(F)c1F (stereo not shown) [Compound 80, N-(2,3-difluorophenyl)-2-oxo-4-[4-(trifluoromethyl)phenyl]-3-pyrrolidinecarboxamide]
Plant response rating (ryegrass, Italian; 31 g ai/ha): 0 | Plant response rating (ryegrass, Italian; 62 g ai/ha): 0 | Plant response rating (ryegrass, Italian; 125 g ai/ha): 0 | Plant response rating (ryegrass, Italian; 250 g ai/ha): 0 | Plant response rating, Ryegrass, Italian (ryegrass, Italian; 62 g ai/ha): 5 | Plant response rating, Ryegrass, Italian (ryegrass, Italian; 125 g ai/ha): 5 | Plant response rating, Ryegrass, Italian (ryegrass, Italian; 31 g ai/ha): 0 | Plant response rating, Ryegrass, Italian (ryegrass, Italian; 250 g ai/ha): 15 | Plant response rating, Johnsongrass (johnsongrass; 16 g ai/ha): 0 | Plant response rating, Johnsongrass (johnsongrass; 31 g ai/ha): 0 | Plant response rating, Johnsongrass (johnsongrass; 62 g ai/ha): 0 | Plant response rating, Johnsongrass (johnsongrass; 125 g ai/ha): 10 | Plant response rating, Johnsongrass (johnsongrass; 250 g ai/ha): 30 | Plant response rating (mustard, wild; Postemergence, 31 g ai/ha): 70 | Plant response rating (mustard, wild; Postemergence, 62 g ai/ha): 80 | Plant response rating (mustard, wild; Postemergence, 125 g ai/ha): 85 | Plant response rating (mustard, wild; Postemergence, 250 g ai/ha): 85 | Plant response rating, Mustard, Wild (mustard, wild; Preemergence, 62 g ai/ha): 25 | Plant response rating, Mustard, Wild (mustard, wild; Preemergence, 31 g ai/ha): 0 | Plant response rating (mustard, wild; Preemergence, 125 g ai/ha): 65 | Plant response rating (mustard, wild; Preemergence, 250 g ai/ha): 70

O=C1NC[C@H](c2cccc(C(F)(F)F)c2)[C@H]1C(=O)Nc1ccccc1F [Compound 204, (3R,4S)—N-(2-fluorophenyl)-2-oxo-4-[3-(trifluoromethyl)phenyl]-3-pyrrolidinecarboxamide]
Plant response rating, Ryegrass, Italian (ryegrass, Italian; 62 g ai/ha): 15 | Plant response rating, Ryegrass, Italian (ryegrass, Italian; 125 g ai/ha): 45 | Plant response rating, Ryegrass, Italian (ryegrass, Italian; 31 g ai/ha): 5 | Plant response rating, Ryegrass, Italian (ryegrass, Italian; 250 g ai/ha): 60 | Plant response rating, Johnsongrass (johnsongrass; 31 g ai/ha): 0 | Plant response rating, Johnsongrass (johnsongrass; 62 g ai/ha): 0 | Plant response rating, Johnsongrass (johnsongrass; 125 g ai/ha): 35 | Plant response rating, Johnsongrass (johnsongrass; 250 g ai/ha): 40 | Plant response rating, Mustard, Wild (mustard, wild; Preemergence, 62 g ai/ha): 20 | Plant response rating, Mustard, Wild (mustard, wild; Preemergence, 125 g ai/ha): 20 | Plant response rating, Mustard, Wild (mustard, wild; Preemergence, 31 g ai/ha): 0 | Plant response rating (mustard, wild; Preemergence, 250 g ai/ha): 20

O=C1NC[C@H](c2cccc(C(F)(F)F)c2)[C@H]1C(=O)Nc1cccc(F)c1F [Compound 206]
Plant response rating, Ryegrass, Italian (ryegrass, Italian; 62 g ai/ha): 30 | Plant response rating, Ryegrass, Italian (ryegrass, Italian; 125 g ai/ha): 55 | Plant response rating, Ryegrass, Italian (ryegrass, Italian; 31 g ai/ha): 35 | Plant response rating, Ryegrass, Italian (ryegrass, Italian; 250 g ai/ha): 75 | Plant response rating, Johnsongrass (johnsongrass; 31 g ai/ha): 30 | Plant response rating, Johnsongrass (johnsongrass; 62 g ai/ha): 50 | Plant response rating, Johnsongrass (johnsongrass; 125 g ai/ha): 75 | Plant response rating, Johnsongrass (johnsongrass; 250 g ai/ha): 90 | Plant response rating, Mustard, Wild (mustard, wild; Preemergence, 62 g ai/ha): 0 | Plant response rating, Mustard, Wild (mustard, wild; Preemergence, 125 g ai/ha): 0 | Plant response rating, Mustard, Wild (mustard, wild; Preemergence, 31 g ai/ha): 0 | Plant response rating (mustard, wild; Preemergence, 250 g ai/ha): 75
